According to patent US9182402B2, “Hepsin inhibitors” (Fred Hutchinson Cancer Research Center, priority 2008, dated 2015):
Read-outs that look alike come from different tables or passages of the source.

Key:
thrombin = thrombin (Bos taurus (Bovine), UniProt P00735); experiment: Thrombin activity assay (chromogenic substrate); format: biochemical; conditions: for IC50: 30 minutes preincubation at room temperature, substrate at Km
Description: (§1) Titration of the chromogenic substrate pryoGlu-Pro-Arg-pNA was performed for each enzyme and the resulting substrate-velocity data fit with nonlinear regression using GraphPad Prism 4 software (GraphPad, La Jolla, Calif.) to calculate Vmax and Km. […] The reactions were then followed using a kinetic microplate reader and the linear rates of increase in absorbance at 405 nm expressed as percent activity (100%×vi/vo). At least three independent experiments were performed for each enzyme. The IC50 was calculated by fitting the data to a four-parameter non-linear regression using GraphPad Prism 4.

HepG2 cells = experiment: Cell cytotoxicity assay (CellTiter-Glo, ATP-luciferase); conditions: HepG2, 20 μM, 72 hours, compounds replenished daily
trypsin = trypsin (Sus scrofa (Pig), UniProt P00761); experiment: Trypsin activity assay (chromogenic substrate); conditions: read-out: IC50 trypsin; 30 minutes preincubation at room temperature, substrate at Km
Description: as §1

recombinant human hepsin = recombinant human hepsin (Homo sapiens, UniProt P05981); experiment: Hepsin activity assay (chromogenic substrate pyroGlu-Pro-Arg-pNA); format: biochemical
Description: D. Hepsin, Trypsin and Thrombin Activity Assays.
Purified recombinant hepsin was preincubated with indicated compounds for 30 minutes at room temperature.

LNCaP cells = experiment: Cell cytotoxicity assay (CellTiter-Glo, ATP-luciferase); conditions: 20 μM, 72 hours, compounds replenished daily
[1] = system: MP-1 mouse prostate epithelial cell line; experiment: as above; conditions: MP-1, 20 μM, 72 hours, compounds replenished daily
[2] = biological target: full-length wild-type murine hepsin expressed in HEK 293FT cells (Mus musculus (Mouse), UniProt O35453); experiment: Hepsin-dependent pericellular serine proteolytic activity assay; format: cell-based; conditions: for attenuation of hepsin-dependent pericellular proteolytic activity: 50 μM, activity/expression level relative to vehicle; for attenuation of hepsin-dependent pericellular proteolytic activity / pericellular proteolytic activity (in words): overnight incubation; for pericellular proteolytic activity (in words): 20 and 50 μM
Description: Loading was verified via immunoblot against β-actin.
G. Pericellular Serine Proteolytic Activity Assay. […] After 3.5 hrs, transfection media was replaced with fresh media containing 20 μM or 50 μM of test compounds or solvent control (0.5% DMSO in media) and cells incubated overnight. Attached cell monolayers were then washed twice with PBS and once with assay buffer (5% CO2 equilibrated phenol-red free DMEM with 1% BSA) to remove residual serum proteases/inhibitors. Cells were then incubated in assay buffer containing 20 or 50 μM compounds for 30 minutes at 37° C. […] Percent inhibition was calculated as residual activity relative to solvent control. Matched samples were used in parallel to determine toxicity of the test compounds to HEK 293FT cells in this system using the CellTiter-Glo™ assay.
D. Inhibition of Hepsin-Dependent Pericellular Proteolytic Activity. To determine whether the identified compounds were able to inhibit cell-based hepsin activity, an assay was devised to measure hepsin-dependent pericellular serine proteolytic activity (FIG. 5A) (Raynaud et al., 1992 J Cell Physiol 151:378; Bauvois et al., 1990 Eur. J. Immunol. 20:459; Bauvois et al., 1992 Eur. J. Immunol. 22:923; Sameni et al., 2000 Neoplasia 2:496; McGowen et al., 2000 Canc. Res. 60:4771). […] Attached cell monolayers were incubated in assay buffer with peptide substrate and the reactions were allowed to proceed at 37° C. […] Activity levels were adjusted by altering hepsin expression levels to within the linear range of detection. A positive linear rate of activity was observed only for wild-type hepsin-expressing cells and was abolished in the presence of the broad spectrum serine protease inhibitor PEFAbloc.

hepsin = hepsin (Mus musculus (Mouse), UniProt O35453); experiment: Immunoblot of hepsin expression levels in compound treated HEK 293FT cells; conditions: 20 and 50 μM, 24 hours
Description: The membrane was blocked overnight in TBST buffer containing: 5% non-fat milk, 2% normal goat serum in 50 mM Tris-HCl, pH 8.0, 100 mM NaCl, 0.1% Tween-20. The membrane was then incubated in 3% BSA in TBST with polyclonal anti-hepsin antibody (1:1000) for two hours at room temperature, washed 3×5 minutes with TBST and incubated for one hour in 0.1% BSA in TBST containing goat-anti-rabbit-HRP secondary antibody (1:2000), washed 3×5 minutes in TBST and developed with ECL (Pierce Chemicals, Rockford, Ill.). […] Expression levels were quantified by densitometry using ImageQuantTL™ (GE Healthcare Life Sciences, Piscataway, N.J.).
As treatment with chemical compounds may alter hepsin expression level (and thereby impact pericellular proteolytic activity), hepsin levels in drug-treated cells were determined via immunoblotting (FIG. 6B).

[3] = 30 minutes preincubation at room temperature, substrate at Km

trypsin, sequence (P00761 9-231): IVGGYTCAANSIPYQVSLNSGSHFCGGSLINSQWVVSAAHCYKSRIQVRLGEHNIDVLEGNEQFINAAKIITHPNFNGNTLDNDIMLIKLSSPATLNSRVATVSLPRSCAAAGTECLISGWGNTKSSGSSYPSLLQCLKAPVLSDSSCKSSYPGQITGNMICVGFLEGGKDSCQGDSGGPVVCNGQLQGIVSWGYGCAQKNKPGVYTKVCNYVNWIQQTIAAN
full-length wild-type murine hepsin expressed in HEK 293FT cells, sequence (O35453 other isoform, or with tags, fused parts or gaps): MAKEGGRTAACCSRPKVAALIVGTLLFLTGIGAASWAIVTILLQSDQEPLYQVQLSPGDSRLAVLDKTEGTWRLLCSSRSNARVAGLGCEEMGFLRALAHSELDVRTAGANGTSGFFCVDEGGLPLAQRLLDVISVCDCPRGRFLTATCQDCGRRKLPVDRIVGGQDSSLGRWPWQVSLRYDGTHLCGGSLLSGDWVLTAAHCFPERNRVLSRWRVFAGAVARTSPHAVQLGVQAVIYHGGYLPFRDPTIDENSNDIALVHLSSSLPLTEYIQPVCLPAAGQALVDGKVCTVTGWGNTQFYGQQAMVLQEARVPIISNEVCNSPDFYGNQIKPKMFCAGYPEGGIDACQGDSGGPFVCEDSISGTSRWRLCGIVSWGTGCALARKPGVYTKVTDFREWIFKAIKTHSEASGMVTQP
recombinant human hepsin, sequence (P05981 1-162 limits assumed): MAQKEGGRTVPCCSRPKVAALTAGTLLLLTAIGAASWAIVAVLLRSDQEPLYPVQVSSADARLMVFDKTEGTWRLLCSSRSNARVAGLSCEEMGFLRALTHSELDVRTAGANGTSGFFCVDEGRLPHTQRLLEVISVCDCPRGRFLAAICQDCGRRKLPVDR
recombinant human hepsin, sequence (P05981 163-417 limits assumed): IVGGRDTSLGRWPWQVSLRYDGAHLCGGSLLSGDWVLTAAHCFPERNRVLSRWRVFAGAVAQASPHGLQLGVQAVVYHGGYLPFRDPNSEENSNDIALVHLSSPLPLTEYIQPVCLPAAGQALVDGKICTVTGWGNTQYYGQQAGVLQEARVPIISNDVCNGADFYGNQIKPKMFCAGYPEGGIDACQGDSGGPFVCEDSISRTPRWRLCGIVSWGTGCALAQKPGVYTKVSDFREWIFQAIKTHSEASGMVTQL

| Structure (SMILES) | activation of thrombin activity (thrombin; at 1 μM) | cellular toxicity (cell viability) (HepG2 cells) | IC50 (trypsin) [µM] | IC50 (recombinant human hepsin; [3]) [µM] | cellular toxicity (cell viability) (LNCaP cells) | cellular toxicity (cell viability) [1] | IC50 (thrombin) [µM] | attenuation of hepsin-dependent pericellular proteolytic activity [2] | pericellular proteolytic activity (in words) [2] | hepsin expression levels (hepsin) | IC50 (recombinant human hepsin) [µM] | pericellular proteolytic activity in the presence of inhibitor ([2]; wild-type hepsin-expressing cells, 30 minutes incubation) |
| --- | --- | --- | --- | --- | --- | --- | --- | --- | --- | --- | --- | --- |
| O=C1C=CC(=O)N1c1cccc([N+](=O)[O-])c1 [Compound 1, 1-(3-nitrophenyl)-1H-pyrrole-2,5-dione] | approximately 3 fold | without affecting | 3.88 ± 0.85 | 0.28 ± 0.07 | substantial toxicity | without affecting |  |  |  |  |  |  |
| Cc1ccc(OCc2nnc(NC(=O)Nc3cccc(Cl)c3)s2)cc1C [Compound 2, N-(3-chlorophenyl)-N′-{5-[(3,4-dimethylphenoxy)methyl]-1,3,4-thiadiazol-2-yl}urea] |  | without affecting | > 20 | 0.76 ± 0.26 | substantial toxicity | without affecting | > 20 |  |  |  |  |  |
| O=C1NC(=O)N(c2cccc(Br)c2)C(=O)/C1=C/c1c[nH]c2ccccc12 [Compound 3] |  | limited or no cytotoxicity | 7.63 ± 1.51 | 1.93 ± 0.39 | limited or no cytotoxicity | limited or no cytotoxicity | > 20 | approximately 50% | attenuated pericellular proteolytic activity in a dose dependent manner | without substantially affecting hepsin expression levels |  |  |
| Cc1cccc(C2Nc3cccc4cccc(c34)N2)c1 [Compound 4, 2-(3-methylphenyl)-2,3-dihydro-1H-perimidine] |  | limited or no cytotoxicity | 19.6 ± 2.7 | 0.35 ± 0.12 | limited or no cytotoxicity | limited or no cytotoxicity | > 20 | approximately 60% | attenuated pericellular proteolytic activity in a dose dependent manner | without substantially affecting hepsin expression levels |  |  |
| O=[N+]([O-])c1ccc(C2Nc3c(cccc3C(F)(F)F)C3C=CCC32)cc1 (stereo not drawn) [Compound 5, 4-(4-nitrophenyl)-6-(trifluoromethyl)-3a,4,5,9b-tetrahydro-3H-cyclopenta[c]quinoline] |  | limited or no cytotoxicity | 31.2 ± 2 | 0.57 ± 0.19 | limited or no cytotoxicity | limited or no cytotoxicity | > 20 | approximately 60% | attenuated pericellular proteolytic activity in a dose dependent manner | without substantially affecting hepsin expression levels |  |  |
| O=[N+]([O-])c1cccc(C2Nc3ccc(Cl)cc3C3C=CCC32)c1 (stereo not drawn) [Compound 6, 8-chloro-4-(3-nitrophenyl)-3a,4,5,9b-tetrahydro-3H-cyclopenta[c]quinoline] |  | limited or no cytotoxicity | 10.2 ± 1.5 | 0.98 ± 0.2 | limited or no cytotoxicity | limited or no cytotoxicity | > 20 |  |  |  |  |  |
| O=c1oc(-c2cccc(F)c2)nc2ccc(Cc3ccc4nc(-c5cccc(F)c5)oc(=O)c4c3)cc12 [Compound 7, 6,6′-methylenebis[2-(3-fluorophenyl)-4H-3,1-benzooxazin-4-one]] |  | limited or no cytotoxicity | 13.1 ± 3 | 2.31 ± 0.53 | limited or no cytotoxicity | limited or no cytotoxicity | > 20 |  |  |  |  |  |
| O=C(Nc1ccc(Cl)c(Cl)c1)Nc1nnc(-c2ccc(Br)cc2)s1 [Compound 8, N-[5-(4-bromophenyl)-1,3,4-thiadiazol-2-yl]-N′-(3,4-dichlorophenyl)urea] |  | limited or no cytotoxicity | 1.71 ± 0.21 | 0.72 ± 0.2 | limited or no cytotoxicity | limited or no cytotoxicity | > 20 |  |  |  |  |  |
| Cc1csc(-c2cc3ccc(OCc4c(F)c(F)c(F)c(F)c4F)cc3oc2=O)n1 [Compound 9, 3-(4-methyl-1,3-thiazol-2-yl)-7-[(pentafluorobenzyl)oxy]-2H-chromen-2-one] |  | limited or no cytotoxicity | 20.9 ± 7.5 | 0.98 ± 0.12 | limited or no cytotoxicity | limited or no cytotoxicity | > 20 |  |  |  |  |  |
| CC1(C)CC(=O)c2c(oc3c(Br)cc(NS(=O)(=O)c4ccccc4)cc23)C1 [Compound 10, N-(4-bromo-7,7-dimethyl-9-oxo-6,7,8,9-tetrahydrodibenzo[b,d]furan-2-yl)benzenesulfonamide] |  | limited or no cytotoxicity | 7.72 ± 1.1 | 0.93 ± 0.13 | limited or no cytotoxicity | limited or no cytotoxicity | > 20 |  |  |  |  |  |
| COc1cccc(OCCOc2cccc(/C=c3\sc4nc5ccccc5n4c3=O)c2)c1 [Compound 11, 2-{3-[2-(3-methoxyphenoxy)ethoxy]benzylidene}[1,3]thiazolo[3,2-a]benzimidazol-3(2H)-one] |  | limited or no cytotoxicity | 2 ± 0.33 |  | limited or no cytotoxicity | limited or no cytotoxicity |  |  |  |  | 1.31 ± 0.44 |  |
| Oc1nc2cc(Cl)c(Cl)cc2nc1O [Compound 16, 2,3-dihydroxy-6,7-dichloroquinoxaline] |  | limited or no cytotoxicity | 2.42 ± 0.29 | 0.75 ± 0.09 | limited or no cytotoxicity | limited or no cytotoxicity | > 20 |  |  |  |  |  |
| Cl.NCCc1ccc(S(=O)(=O)F)cc1 [PEFAbloc, reference compound] |  |  |  |  |  |  |  |  |  |  |  | abolished |
